{"source": "patent US6960610B2", "about": "“Use of glycogen phosphorylase inhibitors for treatment of cardiovascular diseases” (Novo Nordick, A/S, priority 2002, dated 2005)", "key": {"[1]": {"test_system": "isolated perfused rabbit hearts", "experiment": "Ischemia induced arrhythmia in the isolated perfused rabbit heart (Langendorff)", "conditions": "0.4 μg/ml, n=7", "procedure": "The model evaluates the effect of a test compound on ischemia induced arrhythmia in isolated perfused rabbit hearts. The hearts were excised from rabbits and perfused via an aortic canula in a Langendorff set-up equipped with ECG and MAP electrodes. Global normotherm ischemia was induced by turning off the perfusion for 30 min. After 30 min the heart was reperfused and the total duration of arrhythmia was determined. Furthermore, ECG and surface monophasic action potentials (MAPS) were scored to describe the severity of ischemic damage."}, "[2]": {"test_system": "Rabbits (myocardial infarct)", "experiment": "Anaesthetised rabbit model of myocardial infarction induced by transient coronary artery occlusion", "assay_type": "in vivo", "conditions": "10 mg/kg b.i.d.; left coronary artery ligated 30 min, reperfusion 2 hours", "procedure": "Method: Rabbits were anaesthetized and mechanically ventilated with oxygen enriched air. A thoracotomy was performed and an infarct was produced by ligating the left coronary artery for 30 min. After 30 min. the heart was reperfused for 2 hours. The heart was excited and reperfused in Langendorff mode. The coronary artery was reoccluded and the heart was perfused with ink to delineate the area at risk. The heart was removed and cut into 2 mm slices and stained with triphenyl tetrazolium chloride. The area at risk and the infarct size was determined by planimetry."}, "[3]": {"test_system": "heart tissue glycogen", "experiment": "Glycogen content of heart tissue following global ischemia", "conditions": "in the presence of 0.4 μg/ml compound", "procedure": "Method: The glycogen contents of freeze-clamped heart samples were determined enzymatically as μmol of glycosyl units per gram wet weight after boiling the tissue in 0.4 N KOH and subsequent degradation of glycogen with amyloglycosidase"}}, "data": [{"compound": "OC[C@H]1NC[C@@H](O)[C@@H]1O", "note": "[(2R,3R,4R)-3,4dihydroxy-2-hydroxymethylpyrrolidine]", "values": [{"measurement": "MAP score", "setting": "[1]; 30 min global ischemia, reperfusion, without compound 2.3±0.3", "result": "0.9±0.1"}, {"measurement": "ECG score", "setting": "[1]; 30 min global ischemia, reperfusion, without compound 2.4±0.2", "result": "0.7±0.3"}, {"measurement": "average arrhythmia length following reperfusion", "setting": "[1]; 30 min global normotherm ischemia, then reperfusion, without compound 18.0±5.6", "result": "0.0 ± 0.0", "unit": "min"}, {"measurement": "reduction of infarct size compared to untreated rabbits", "setting": "[2]", "result": 45, "unit": "%"}, {"measurement": "glycogen content before ischemia", "setting": "[3]; starting value", "result": "16.9±1.5 glycosyl units/g wet weight"}, {"measurement": "glycogen content after 30 min. of global ischemia", "setting": "[3]; without compound 2.6±0.8", "result": "6.9±1.1 glycosyl units/g wet weight"}]}]}
